According to the Kinase Knowledgebase extract (Sharma et al. 2016):

Molecular target: EGFR (UniProt P00533)
Sequence (P00533 whole entry, looked up): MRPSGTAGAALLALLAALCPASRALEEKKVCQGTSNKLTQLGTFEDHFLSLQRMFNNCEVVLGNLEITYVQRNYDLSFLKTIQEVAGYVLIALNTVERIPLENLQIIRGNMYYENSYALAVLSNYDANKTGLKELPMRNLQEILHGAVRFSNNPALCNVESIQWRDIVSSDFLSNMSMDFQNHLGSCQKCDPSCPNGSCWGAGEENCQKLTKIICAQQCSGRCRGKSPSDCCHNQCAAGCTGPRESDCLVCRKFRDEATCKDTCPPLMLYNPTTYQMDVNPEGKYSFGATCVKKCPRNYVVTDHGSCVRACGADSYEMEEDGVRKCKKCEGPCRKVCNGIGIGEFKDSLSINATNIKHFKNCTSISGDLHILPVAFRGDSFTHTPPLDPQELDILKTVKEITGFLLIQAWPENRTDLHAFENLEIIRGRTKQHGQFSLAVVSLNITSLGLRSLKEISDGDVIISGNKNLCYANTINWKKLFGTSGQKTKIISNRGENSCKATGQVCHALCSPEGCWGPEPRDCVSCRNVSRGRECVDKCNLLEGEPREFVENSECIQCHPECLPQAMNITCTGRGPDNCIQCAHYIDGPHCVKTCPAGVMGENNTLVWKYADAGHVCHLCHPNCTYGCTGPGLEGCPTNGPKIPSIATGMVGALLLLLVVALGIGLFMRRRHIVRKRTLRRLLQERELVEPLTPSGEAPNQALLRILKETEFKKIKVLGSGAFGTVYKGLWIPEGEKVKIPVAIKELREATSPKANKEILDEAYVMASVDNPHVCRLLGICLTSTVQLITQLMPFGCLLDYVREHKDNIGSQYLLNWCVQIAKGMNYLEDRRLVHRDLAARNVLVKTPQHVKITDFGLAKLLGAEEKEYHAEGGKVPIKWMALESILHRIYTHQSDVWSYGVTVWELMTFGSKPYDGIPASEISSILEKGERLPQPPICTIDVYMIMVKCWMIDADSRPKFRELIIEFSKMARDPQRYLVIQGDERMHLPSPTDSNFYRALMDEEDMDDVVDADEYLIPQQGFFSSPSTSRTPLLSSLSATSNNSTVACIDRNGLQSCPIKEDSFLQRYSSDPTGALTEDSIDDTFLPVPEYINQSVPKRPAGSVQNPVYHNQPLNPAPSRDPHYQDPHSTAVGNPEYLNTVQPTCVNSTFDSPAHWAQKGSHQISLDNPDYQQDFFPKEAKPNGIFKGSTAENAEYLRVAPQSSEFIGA

SMILES | IC50
COc1ccc2ncnc(Nc3cc(OC)c(OC)c(OC)c3)c2c1 | 5000 nM
COc1cc2ncnc(Sc3cccc(Cl)c3)c2cc1OC | 100 nM
COc1cc2ncnc(Nc3ccc4ccccc4c3)c2cc1OC | 50 nM
COc1cccc(Sc2ncnc3cc(OC)c(OC)cc23)c1 | 2000 nM
COc1cc2ncnc(Nc3cccc(C#N)c3)c2cc1OC | 10000 nM
COc1cc2ncnc(Nc3cc(Cl)c(Cl)c(Cl)c3)c2cc1OC | 1000 nM
COc1cc2ncnc(N(C)c3ccccc3)c2cc1OC | 200 nM
COc1cc2ncnc(Nc3cccc4ccccc34)c2cc1OC | 10 nM
COc1cc2ncnc(Nc3ccc(OC(C)C)cc3)c2cc1OC | 5000 nM
COc1cccc(Nc2ncnc3cc(OC)c(OC)cc23)c1 | 50 nM
COc1cc2ncnc(Nc3ccccc3Cl)c2cc1OC | 50 nM
COc1cc2ncnc(Cc3ccccc3)c2cc1OC | ≤ 500 nM
COc1cc2ncnc(NC3CCCCC3)c2cc1OC | < 1000 nM
Clc1cccc(Nc2ncnc3ccccc23)c1 | 50 to 100 nM
